Laboratory results taken from US12673975B2, “Cyclic peptide, cell scaffold material, cell separating material, and medium” (FUJIFILM Corporation, priority 2019, dated 2026).
Where two headings read alike, the source gives them in different places. Starred links: 1 amine or outer side, 2 acyl side, 3 side chain; linkers in the order of their positions; H or OH if unused. Positions of bridges follow the written chain, without caps; N, C: chain ends. Non-standard residues stand in square brackets, D forms with d. Residues, ends and D or L forms follow the SMILES beside them. hTyr = N[C@@H](CCc1ccc(O)cc1)C(=O)O; hCys = N[C@@H](CCS)C(=O)O; hSer = N[C@@H](CCO)C(=O)O; Orn = NCCC[C@H](N)C(=O)O; Dab = NCC[C@H](N)C(=O)O; X1 = O=C(C[*:2])[*:1]; X2 = O=C(C[*:1])[*:2]

Experiments:
human integrin αvβ5 = human integrin αvβ5 (Homo sapiens, UniProt P06756+P18084); test: Evaluation of integrin binding property (surface plasmon resonance, Biacore 3000, immobilized cyclic peptide)
Chain of human integrin αvβ5 (P06756 31-1048): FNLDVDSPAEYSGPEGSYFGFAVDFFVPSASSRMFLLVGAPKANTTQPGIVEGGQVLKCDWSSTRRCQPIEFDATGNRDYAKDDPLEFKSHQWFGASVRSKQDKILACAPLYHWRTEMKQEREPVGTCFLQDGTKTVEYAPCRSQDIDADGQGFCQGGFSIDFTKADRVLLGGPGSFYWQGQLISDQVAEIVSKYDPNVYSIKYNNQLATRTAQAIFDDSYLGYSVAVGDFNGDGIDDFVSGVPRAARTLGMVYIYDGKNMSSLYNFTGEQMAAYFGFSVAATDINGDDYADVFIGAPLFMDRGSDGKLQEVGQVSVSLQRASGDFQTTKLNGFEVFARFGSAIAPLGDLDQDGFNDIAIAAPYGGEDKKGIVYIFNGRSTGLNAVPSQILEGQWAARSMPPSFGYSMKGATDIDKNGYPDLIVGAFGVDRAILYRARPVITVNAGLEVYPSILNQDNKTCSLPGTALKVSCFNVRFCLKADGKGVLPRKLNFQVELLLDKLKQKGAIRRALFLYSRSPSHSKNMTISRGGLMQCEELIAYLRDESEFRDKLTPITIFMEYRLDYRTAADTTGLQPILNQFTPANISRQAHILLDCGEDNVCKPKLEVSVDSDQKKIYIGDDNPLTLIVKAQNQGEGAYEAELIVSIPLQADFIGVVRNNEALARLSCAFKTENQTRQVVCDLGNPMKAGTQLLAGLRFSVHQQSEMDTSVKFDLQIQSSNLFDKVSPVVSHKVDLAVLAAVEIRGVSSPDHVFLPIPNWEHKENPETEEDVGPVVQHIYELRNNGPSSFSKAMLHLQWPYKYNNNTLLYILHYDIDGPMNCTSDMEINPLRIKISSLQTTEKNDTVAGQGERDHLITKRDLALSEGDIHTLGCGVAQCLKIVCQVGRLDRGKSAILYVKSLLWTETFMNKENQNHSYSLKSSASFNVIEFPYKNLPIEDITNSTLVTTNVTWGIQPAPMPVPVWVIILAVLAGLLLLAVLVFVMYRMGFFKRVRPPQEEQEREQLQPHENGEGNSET
Chain of human integrin αvβ5 (P18084 24-799): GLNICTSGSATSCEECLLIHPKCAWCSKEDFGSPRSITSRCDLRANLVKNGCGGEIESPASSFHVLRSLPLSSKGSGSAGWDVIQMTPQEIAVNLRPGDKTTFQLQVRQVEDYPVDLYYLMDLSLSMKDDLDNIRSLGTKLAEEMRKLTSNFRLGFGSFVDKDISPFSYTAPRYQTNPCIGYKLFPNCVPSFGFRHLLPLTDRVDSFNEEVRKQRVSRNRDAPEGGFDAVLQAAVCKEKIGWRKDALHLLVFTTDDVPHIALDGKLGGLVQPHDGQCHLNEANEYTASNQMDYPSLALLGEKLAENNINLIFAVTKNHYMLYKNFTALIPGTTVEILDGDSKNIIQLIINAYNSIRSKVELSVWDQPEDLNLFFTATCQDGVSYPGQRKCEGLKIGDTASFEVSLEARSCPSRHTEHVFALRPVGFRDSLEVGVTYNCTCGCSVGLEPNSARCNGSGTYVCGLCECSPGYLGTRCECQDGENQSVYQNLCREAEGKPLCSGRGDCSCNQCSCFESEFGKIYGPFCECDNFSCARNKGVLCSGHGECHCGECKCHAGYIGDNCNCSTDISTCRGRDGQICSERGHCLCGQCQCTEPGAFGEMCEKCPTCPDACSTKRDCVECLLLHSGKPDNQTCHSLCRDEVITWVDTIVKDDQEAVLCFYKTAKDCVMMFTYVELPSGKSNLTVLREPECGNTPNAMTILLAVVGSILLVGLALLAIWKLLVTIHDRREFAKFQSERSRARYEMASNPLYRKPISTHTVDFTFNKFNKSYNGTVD
Procedure: A commercially available CMS (a carboxymethyl dextran introduction type, manufactured by GE Healthcare) sensor chip was set in Biacore 3000, which is a surface plasmon resonance apparatus manufactured by GE Healthcare, the sensor was stabilized at a flow rate of 10 μL/min of a HEPES (4-(2-hydroxyethyl)-1-piperazineethanesulfonic acid) buffer solution (20 mM HEPES-HCl, 150 mM NaCl, pH 7.4) for surface plasmon resonance (SPR), and 70 μL of a mixed aqueous solution of 0.2 M 1-(3-dimethylaminopropyl)-3-ethylcarbodiimide (EDC) and 0.04 M N-hydroxysuccinimide (NHS) was added thereto. Here, the concentration unit M represents mol/L, and the same applies hereinafter. Then, 20 μL of the sample solution of each of the above cyclic peptides diluted to 0.2 g/L with the HEPES buffer solution was supplied to the sensor chip, blocking treatment was subsequently carried out with an ethanolamine solution, and washing was carried out with a sodium hydroxide aqueous solution, whereby immobilization was carried out. However, only for the cyclic peptides 125, 126, and 127, in which the number of lysine residues having an amino group as the immobilizing functional group was zero, the amount of the sample solution to be supplied to the sensor chip was set to 500 μL instead of 20 μL. Further, 70 μL of the mixed aqueous solution of 0.2 M EDC and 0.04 M NHS was added to another flow channel of the same sensor chip without immobilizing the sample, and then blocking treatment and washing treatment were carried out. Hereinafter, the obtained immobilization-treated sensor chip is referred to as an “immobilization-treated sensor chip A”.
After adding human integrin αvβ5 for 10 minutes at 25° C., which was diluted to 30 nM using a HEPES buffer solution to which magnesium chloride was added to 5 mM, in each flow channel of the immobilization-treated sensor chip A prepared in (1) above, the same HEPES buffer solution (containing 5 mM magnesium chloride) was allowed to flow as a running buffer for 30 minutes, and measurement was carried out with Biacore 3000. Then, a regeneration treatment of removing human integrin αvβ5 was carried out by allowing a 0.5 M EDTA aqueous solution to flow through each flow channel for 10 minutes. Further, the above-described measurement process consisting of adding integrin for 10 minutes, allowing a running buffer to flow for 30 minutes, carrying out measurement with Biacore 3000, and carrying out regeneration treatment with 0.5 M EDTA aqueous solution was carried out in the same manner for 100 nM human integrin αvβ5, 300 nM human integrin αvβ5, and 1,000 nM human integrin αvβ5. Dissociation constant between the cyclic peptide and human integrin αvβ5 was calculated from the difference between the value measured by Biacore 3000 in the flow channel immobilized with the cyclic peptide and the value measured by Biacore 3000 in the flow channel unimmobilized with the cyclic peptide, in a case where each concentration of human integrin αvβ5 was allowed to flow, and the integrin binding property was evaluated according to the following evaluation standards. It is preferable that the evaluation result satisfies the evaluation standard A, B, or C.

[1] = Evaluation of molecule stability (alkali treatment, residual rate by LC/MS); type: physicochemical; conditions: for Stability (molecule stability, residual rate of the cyclic peptide rank): alkali treatment, residual rate by LC/MS; for Performance evaluation: Stability (residual rate of cyclic peptide after alkali treatment): 500 μM peptide aqueous solution plus equivalent of 1 M sodium hydroxide, 15° C., 3 hours, LC/MS peak area
Procedure: The molecule stability of the cyclic peptide was evaluated by analyzing the alkali-treated cyclic peptide aqueous solution by liquid chromatography mass spectroscopy (LC/MS).
The alkali treatment was carried out by the following method. A 500 μM cyclic peptide aqueous solution was prepared, an equivalent of 1 M sodium hydroxide aqueous solution was added to this aqueous solution, and the resultant mixture was incubated at 15° C. for 3 hours to obtain an alkali-treated cyclic peptide aqueous solution. The cyclic peptide residual rate was calculated by setting the total area of all peaks of the cyclic peptide before alkali treatment in LC/MS to 100% and determining the proportion of the total area of all peaks in LC/MS of the alkali-treated cyclic peptide aqueous solution, and the molecule stability was evaluated according to the following evaluation standards. It is preferable that the evaluation result satisfies the evaluation standard A, B, or C.
The conditions of the LC/MS used for the evaluation of molecule stability were set as follows. • LC apparatus: Prominence series (pump, column oven, autosampler, detector) (manufactured by Shimadzu Corporation) • MS detector: LC/MS2010EV (manufactured by Shimadzu Corporation) • Column: Cadenza CD-C18, inner diameter 2.0 mm×length 250 mm, particle size: 3 μm (manufactured by Imtakt Corporation) • Eluent A: a solution (pH 3) containing 10 mM ammonium formate as a solute, where the solvent is 100% water. • Eluent B: a solution (pH 3) containing 10 mM ammonium formate as a solute, where the solvent is acetonitrile/water=90/10. • Flow rate: 0.2 mL/min • Injection volume: 4 μL • Gradient: 0% to 30%: Eluent B (0 to 30 minutes), 100%: Eluent B (30 to 40 minutes), 0%: Eluent B (40 to 60 minutes) • Column temperature: 45° C. • Ionization method: electrospray ionization (ESI) positive, ESI negative

[2] = surface plasmon resonance, immobilized cyclic peptide, human integrin αvβ5, read-out: Binding activity (integrin binding property, dissociation constant rank)
[3] = SPR, 25° C., HEPES buffer with 5 mM magnesium chloride, integrin 30-1,000 nM, read-out: Performance evaluation: Binding activity (dissociation constant between the cyclic peptide and human integrin αvβ5)

| Kd (human integrin αvβ5; [2]) | Kd (human integrin αvβ5; [3]) | SMILES | Stability (molecule stability, residual rate of the cyclic peptide rank) [1] | Performance evaluation: Stability (residual rate of cyclic peptide after alkali treatment) [1] |
| --- | --- | --- | --- | --- |
| < 50 nM | – | CC[C@H](C)[C@@H]1NC(=O)[C@@H](NC(=O)CNC(=O)[C@H](CCCCN)NC(=O)[C@H](CCCCN)NC(=O)[C@@H](N)CCCCN)CCSCC(=O)NCCC[C@@H](C(=O)N[C@@H](C)C(=O)O)NC(=O)[C@H](CCCNC(=N)N)NC(=O)[C@H](Cc2ccccc2)NC(=O)[C@H]([C@@H](C)O)NC(=O)[C@H](CC(=O)O)NC(=O)CNC(=O)[C@H](CCCNC(=N)N)NC(=O)[C@@H]2CCCN2C1=O [Cyclic peptide 115, KKKG-(Hcy)-IPRGDTFR(Orn(acetyl))A] (H-KKKG[hCys]IPRGDTFR[Orn]A-OH; linker 5-14 via X2) | A (The residual rate of the cyclic peptide is 70% or more.) | – |
| – | < 50 nM | CC(C)C[C@@H]1NC(=O)[C@@H](NC(=O)CNC(=O)[C@H](CCCCN)NC(=O)[C@H](CCCCN)NC(=O)[C@@H](N)CCCCN)CCSCC(=O)NCC[C@@H](C(=O)N[C@@H](C)C(=O)O)NC(=O)[C@H](CCCNC(=N)N)NC(=O)[C@H](Cc2ccccc2)NC(=O)[C@H](CC(N)=O)NC(=O)[C@H](CC(=O)O)NC(=O)CNC(=O)[C@H](CCCNC(=N)N)NC(=O)[C@@H]2CCCN2C1=O [Cyclic peptide 27, KKKG-(Hcy)-LPRGDNFR(Dab(acetyl))A] (H-KKKG[hCys]LPRGDNFR[Dab]A-OH; linker 5-14 via X2) | – | A (The residual rate of the cyclic peptide is 70% or more.) |
| – | < 50 nM | CC[C@H](C)[C@@H]1NC(=O)[C@@H](NC(=O)CNC(=O)[C@H](CCCCN)NC(=O)[C@H](CCCCN)NC(=O)[C@@H](N)CCCCN)CCSCC(=O)NCC[C@@H](C(=O)O)NC(=O)[C@H](CCCNC(=N)N)NC(=O)[C@H](Cc2ccccc2)NC(=O)[C@H](CC(N)=O)NC(=O)[C@H](CC(=O)O)NC(=O)CNC(=O)[C@H](CCCNC(=N)N)NC(=O)[C@@H]2CCCN2C1=O [Cyclic peptide 7, KKKG-(Hcy)-IPRGDNFR(Dab(acetyl))] (H-KKKG[hCys]IPRGDNFR[Dab]-OH; linker 5-14 via X2) | – | A (The residual rate of the cyclic peptide is 70% or more.) |
| – | 50 to 100 nM | C[C@H](NC(=O)[C@H](CCCCN)NC(=O)[C@H](CCCCN)NC(=O)[C@@H](N)CCCCN)C(=O)N[C@H]1CCSCC(=O)NCC[C@@H](C(=O)O)NC(=O)[C@H](CCCNC(=N)N)NC(=O)[C@H](Cc2ccc(O)cc2)NC(=O)[C@H](CC(N)=O)NC(=O)[C@H](CC(=O)O)NC(=O)CNC(=O)[C@H](CCCNC(=N)N)NC(=O)[C@@H]2CCCN2C(=O)[C@H](CCC(=O)O)NC1=O [Cyclic peptide 45, KKKA-(Hcy)-EPRGDNYR(Dab(acetyl))] (H-KKKA[hCys]EPRGDNYR[Dab]-OH; linker 5-14 via X2) | – | A (The residual rate of the cyclic peptide is 70% or more.) |
| < 50 nM | – | CC(C)[C@@H]1NC(=O)[C@@H](NC(=O)[C@H](CCCCN)NC(=O)[C@H](CCCCN)NC(=O)[C@@H](N)CCCCN)CCNC(=O)CSC[C@@H](C(=O)O)NC(=O)[C@H](Cc2ccccc2)NC(=O)[C@H](CC(N)=O)NC(=O)[C@H](CC(=O)O)NC(=O)CNC(=O)[C@H](CCCNC(=N)N)NC(=O)[C@@H]2CCCN2C1=O [Cyclic peptide 143, KKK(Dab(acetyl))VPRGDNF(C)] (H-KKK[Dab]VPRGDNFC-OH; linker 4-12 via X1) | C (The residual rate of the cyclic peptide is 30% or more and less than 50%.) | – |
| < 50 nM | – | CC(C)C[C@@H]1NC(=O)[C@@H](NC(=O)[C@H](CCCCN)NC(=O)[C@H](CCCCN)NC(=O)[C@@H](N)CCCCN)CCSCC(=O)NCC[C@@H](C(=O)O)NC(=O)[C@H](C)NC(=O)[C@H](Cc2ccccc2)NC(=O)[C@H]([C@@H](C)O)NC(=O)[C@H](CC(=O)O)NC(=O)CNC(=O)[C@H](CCCNC(=N)N)NC(=O)[C@@H]2CCCN2C1=O [Cyclic peptide 146, KKK-(Hcy)-LPRGDTFA(Dab(acetyl))] (H-KKK[hCys]LPRGDTFA[Dab]-OH; linker 4-13 via X2) | A (The residual rate of the cyclic peptide is 70% or more.) | – |
| < 50 nM | – | CC(C)[C@@H]1NC(=O)[C@@H](NC(=O)[C@H](C)NC(=O)[C@H](CCCCN)NC(=O)[C@H](CCCCN)NC(=O)[C@@H](N)CCCCN)CCSCC(=O)NCCCC[C@@H](C(=O)N[C@@H](C)C(=O)O)NC(=O)[C@H](C)NC(=O)[C@H](Cc2ccccc2)NC(=O)[C@H]([C@@H](C)O)NC(=O)[C@H](CC(=O)O)NC(=O)CNC(=O)[C@H](CCCNC(=N)N)NC(=O)[C@@H]2CCCN2C1=O [Cyclic peptide 121, KKKA-(Hcy)-VPRGDTFA(Lys(acetyl))A] (H-KKKA[hCys]VPRGDTFAKA-OH; linker 5-14 via X2) | A (The residual rate of the cyclic peptide is 70% or more.) | – |
| – | 50 to 100 nM | N=C(N)NCCC[C@@H]1NC(=O)[C@H](Cc2ccc(O)cc2)NC(=O)[C@H](CC(N)=O)NC(=O)[C@H](CC(=O)O)NC(=O)CNC(=O)[C@H](CCCNC(=N)N)NC(=O)[C@@H]2CCCN2C(=O)[C@H](CCC(=O)O)NC(=O)[C@@H](NC(=O)[C@H](CCCCN)NC(=O)[C@H](CCCCN)NC(=O)[C@@H](N)CCCCN)CCSCC(=O)NCC[C@@H](C(N)=O)NC1=O [Cyclic peptide 49, KKK-(Hcy)-EPRGDNYR(Dab(acetyl))] (H-KKK[hCys]EPRGDNYR[Dab]-NH2; linker 4-13 via X2) | – | A (The residual rate of the cyclic peptide is 70% or more.) |
| – | – | CC[C@H](C)[C@@H]1NC(=O)[C@@H](NC(=O)CNC(=O)[C@H](CCCCN)NC(=O)[C@H](CCCCN)NC(=O)[C@@H](N)CCCCN)CCSCC(=O)NCC[C@@H](C(=O)N[C@@H](C)C(=O)O)NC(=O)[C@H](CCCNC(=N)N)NC(=O)[C@H](Cc2ccccc2)NC(=O)[C@H](CCO)NC(=O)[C@H](CC(=O)O)NC(=O)CNC(=O)[C@H](CCCNC(=N)N)NC(=O)[C@@H]2CCCN2C1=O [Cyclic peptide 73, KKKG-(Hcy)-IPRGD-(HmS)-FR(Dab(acetyl))A] (H-KKKG[hCys]IPRGD[hSer]FR[Dab]A-OH; linker 5-14 via X2) | – | A (The residual rate of the cyclic peptide is 70% or more.) |
| – | – | C[C@H](NC(=O)[C@@H]1CCNC(=O)CSCC[C@H](NC(=O)CNC(=O)[C@H](CCCCN)NC(=O)[C@H](CCCCN)NC(=O)[C@@H](N)CCCCN)C(=O)N[C@@H](CCc2ccc(O)cc2)C(=O)N2CCC[C@H]2C(=O)N[C@@H](CCCNC(=N)N)C(=O)NCC(=O)N[C@@H](CC(=O)O)C(=O)N[C@@H]([C@@H](C)O)C(=O)N[C@@H](Cc2ccccc2)C(=O)N[C@@H](CCCNC(=N)N)C(=O)N1)C(=O)O [Cyclic peptide 68, KKKG-(Hcy)-(HmY)-PRGDTFR(Dab(acetyl))A] (H-KKKG[hCys][hTyr]PRGDTFR[Dab]A-OH; linker 5-14 via X2) | – | A (The residual rate of the cyclic peptide is 70% or more.) |
